Where two headings read alike, the source gives them in different places.
How the values were obtained:
Format in all cases: cell-based
BaF3_HER2YVMA cells = assay: Cell growth inhibition assay, BaF3_HER2YVMA; conditions: BaF3_HER2YVMA cells, 3 days treatment, CellTiterGlo 2.0, read-out: HER2-YVMA IC50 (nM), cell growth inhibition
BaF3_HER2WT cells = assay: Cell growth inhibition assay, BaF3_HER2WT; conditions: 3 days treatment, CellTiterGlo 2.0, read-out: HER2 WT IC50 (nM), cell growth inhibition
BaF3_EGFRWT cells = assay: Cell growth inhibition assay, BaF3_EGFRWT; conditions: 80 ng/mL recombinant human EGF, 3 days treatment, CellTiterGlo 2.0, read-out: EGFR WT IC50 (nM), cell growth inhibition

## Cc1cc(Nc2ncnn3ccc(C4CCN(C(=O)C(F)Cl)CC4)c23)ccc1Oc1ccn2ncnc2c1 (stereo not drawn) [Example 35, 1-(4-(4-((4-([1,2,4]triazolo[1,5-a]pyridin-7-yloxy)-3-methylphenyl)amino)pyrrolo[2,1-f][1,2,4]triazin-5-yl)piperidin-1-yl)-2-chloro-2-fluoroethan-1-one acetate]
BaF3_HER2YVMA cells; 72 h
  IC50: < 200 nM
BaF3_HER2WT cells; 72 h
  IC50: < 200 nM
BaF3_EGFRWT cells; 72 h
  IC50: 1500 to 5000 nM

## C=C(CN(C)C)C(=O)N1C2CCC1CC(c1ccn3ncnc(Nc4ccc(Oc5ccn6ncnc6c5)c(C)c4)c13)C2 (single isomer, unassigned) [Examples 126 and 127, first eluting isomer, 1-(3-(4-((4-([1,2,4]triazolo[1,5-a]pyridin-7-yloxy)-3-methylphenyl)amino)pyrrolo[2,1-f][1,2,4]triazin-5-yl)-8-azabicyclo[3.2.1]octan-8-yl)-2-((dimethylamino)methyl)prop-2-en-1-one]
BaF3_HER2YVMA cells
  IC50: 200 to 500 nM
BaF3_HER2WT cells; 72 h
  IC50: < 200 nM
BaF3_EGFRWT cells; 72 h
  IC50: 1500 to 5000 nM

## Cc1cc(Nc2ncnn3ccc(C4CCN(C(=O)/C=C/CN(C)C)C4)c23)ccc1Oc1ccn2ncnc2c1 (single isomer, unassigned) [Examples 99 and 100, second eluting isomer, (E)-1-(3-(4-((4-([1,2,4]triazolo[1,5-a]pyridin-7-yloxy)-3-methylphenyl)amino)pyrrolo[2,1-f][1,2,4]triazin-5-yl)pyrrolidin-1-yl)-4-(dimethylamino)but-2-en-1-one]
BaF3_HER2YVMA cells
  IC50: 500 to 1500 nM
BaF3_HER2WT cells
  IC50: < 200 nM
BaF3_EGFRWT cells
  IC50: 1500 to 5000 nM

## C=CC(=O)N1CC2CCC1CC2c1ccn2ncnc(Nc3ccc(Oc4ccn5ncnc5c4)c(C)c3)c12 (single isomer, unassigned) [Examples 139 and 140, second eluting isomer, 1-(5-(4-((4-([1,2,4]triazolo[1,5-a]pyridin-7-yloxy)-3-methylphenyl)amino)pyrrolo[2,1-f][1,2,4]triazin-5-yl)-2-azabicyclo[2.2.2]octan-2-yl)prop-2-en-1-one]
BaF3_HER2YVMA cells
  IC50: 1500 to 5000 nM
BaF3_HER2WT cells
  IC50: 500 to 1500 nM
BaF3_EGFRWT cells
  IC50: 1500 to 5000 nM

## Cc1cc(Nc2ncnn3ccc(C4CN(C(=O)/C=C/CN(C)C)C4)c23)ccc1Oc1cc2ncnn2cn1 [Example 158, (E)-1-(3-(4-((4-([1,2,4]triazolo[1,5-c]pyrimidin-7-yloxy)-3-methylphenyl)amino)pyrrolo[2,1-f][1,2,4]triazin-5-yl)azetidin-1-yl)-4-(dimethylamino)but-2-en-1-one]
BaF3_HER2YVMA cells; 72 h
  IC50: < 200 nM
BaF3_HER2WT cells; 72 h
  IC50: < 200 nM
BaF3_EGFRWT cells; 72 h
  IC50: 500 to 1500 nM

## Cc1cc(Nc2ncnn3ccc(C4CCN(C(=O)/C=C/CN5CC(F)C5)CC4)c23)ccc1Oc1ccc2c(c1)ncn2C [Example 162, (E)-4-(3-fluoroazetidin-1-yl)-1-(4-(4-((3-methyl-4-((1-methyl-1H-benzo[d]imidazol-5-yl)oxy)phenyl)amino)pyrrolo[2,1-f][1,2,4]triazin-5-yl)piperidin-1-yl)but-2-en-1-one]
BaF3_HER2YVMA cells; 72 h
  IC50: 500 to 1500 nM
BaF3_HER2WT cells; 72 h
  IC50: 200 to 500 nM
BaF3_EGFRWT cells; 72 h
  IC50: 1500 to 5000 nM

## Cc1cc(Nc2ncnn3ccc(C4CCN(C(=O)/C=C/C5CCCN5C)CC4)c23)ccc1Oc1ccn2ncnc2c1 (stereo not drawn) [Example 65, (E)-1-(4-(4-((4-([1,2,4]triazolo[1,5-a]pyridin-7-yloxy)-3-methylphenyl)amino)pyrrolo[2,1-f][1,2,4]triazin-5-yl)piperidin-1-yl)-3-(1-methylpyrrolidin-2-yl)prop-2-en-1-one]
BaF3_HER2YVMA cells; 72 h
  IC50: < 200 nM
BaF3_HER2WT cells; 72 h
  IC50: < 200 nM
BaF3_EGFRWT cells; 72 h
  IC50: 1500 to 5000 nM

## C=CC(=O)NC1CCN(c2ccn3ncnc(Nc4ccc(Oc5ccn6ncnc6c5)c(C)c4)c23)CC1 [Example 78, N-(1-(4-((4-([1,2,4]triazolo[1,5-a]pyridin-7-yloxy)-3-methylphenyl)amino)pyrrolo[2,1-f][1,2,4]triazin-5-yl)piperidin-4-yl)acrylamide]
BaF3_HER2YVMA cells; 72 h
  IC50: 200 to 500 nM
BaF3_HER2WT cells; 72 h
  IC50: < 200 nM
BaF3_EGFRWT cells; 72 h
  IC50: 1500 to 5000 nM

## C=C(CN(C)C)C(=O)N1CC2CCC1CC2c1ccn2ncnc(Nc3ccc(Oc4ccn5ncnc5c4)c(C)c3)c12 (single isomer, unassigned) [Examples 135 and 136, second eluting isomer, 1-(5-(4-((4-([1,2,4]triazolo[1,5-a]pyridin-7-yloxy)-3-methylphenyl)amino)pyrrolo[2,1-f][1,2,4]triazin-5-yl)-2-azabicyclo[2.2.2]octan-2-yl)-2-((dimethylamino)methyl)prop-2-en-1-one]
BaF3_HER2YVMA cells
  IC50: 200 to 500 nM
BaF3_HER2WT cells
  IC50: < 200 nM
BaF3_EGFRWT cells
  IC50: < 200 nM

## Cc1cc(Nc2ncnn3ccc(C4CCN(C(=O)[C@H](F)Cl)CC4)c23)ccc1Oc1ccn2ncnc2c1 (single isomer, unassigned) [Examples 173 and 174, first eluting isomer]
BaF3_HER2YVMA cells; 72 h
  IC50: 1500 to 5000 nM
BaF3_HER2WT cells; 72 h
  IC50: 200 to 500 nM
BaF3_EGFRWT cells; 72 h
  IC50: 1500 to 5000 nM

## Cc1cc(Nc2ncnn3ccc(C4CCN(C(=O)/C=C/CN5CC(F)C5)CC4)c23)ccc1Oc1ccn2ncnc2c1 [Example 163]
BaF3_HER2YVMA cells; 72 h
  IC50: < 200 nM
BaF3_HER2WT cells; 72 h
  IC50: < 200 nM
BaF3_EGFRWT cells; 72 h
  IC50: 1500 to 5000 nM

## Cc1cc(Nc2ncnn3ccc(N4CCC(N(C)C(=O)/C=C/CN(C)C)CC4)c23)ccc1Oc1ccn2ncnc2c1 [Example 73, (E)-N-(1-(4-((4-([1,2,4]triazolo[1,5-a]pyridin-7-yloxy)-3-methylphenyl)amino)pyrrolo[2,1-f][1,2,4]triazin-5-yl)piperidin-4-yl)-4-(dimethylamino)-N-methylbut-2-enamide]
BaF3_HER2YVMA cells; 72 h
  IC50: 500 to 1500 nM
BaF3_HER2WT cells; 72 h
  IC50: < 200 nM
BaF3_EGFRWT cells; 72 h
  IC50: 1500 to 5000 nM

## Cc1cc(Nc2ncnn3ccc(N4CCCN(C(=O)/C=C/CN5CCOCC5)CC4)c23)ccc1Oc1ccn2ncnc2c1 [Example 80, (E)-1-(4-(4-((4-([1,2,4]triazolo[1,5-a]pyridin-7-yloxy)-3-methylphenyl)amino)pyrrolo[2,1-f][1,2,4]triazin-5-yl)-1,4-diazepan-1-yl)-4-morpholinobut-2-en-1-one]
BaF3_HER2YVMA cells; 72 h
  IC50: 1500 to 5000 nM
BaF3_HER2WT cells; 72 h
  IC50: < 200 nM
BaF3_EGFRWT cells; 72 h
  IC50: 1500 to 5000 nM

## Cc1cc(Nc2ncnn3ccc(C4CN(C(=O)/C=C/CN(C)C)C4)c23)ccc1Oc1ccn2cnnc2c1 [Example 134, (E)-1-(3-(4-((4-([1,2,4]triazolo[4,3-a]pyridin-7-yloxy)-3-methylphenyl)amino)pyrrolo[2,1-f][1,2,4]triazin-5-yl)azetidin-1-yl)-4-(dimethylamino)but-2-en-1-one]
BaF3_HER2YVMA cells; 72 h
  IC50: 1500 to 5000 nM
BaF3_HER2WT cells; 72 h
  IC50: 200 to 500 nM
BaF3_EGFRWT cells; 72 h
  IC50: 1500 to 5000 nM

## CO[C@H]1CN(C/C=C/C(=O)N2CCC(c3ccn4ncnc(Nc5ccc(Oc6ccc7c(c6)ncn7C)c(C)c5)c34)CC2)C[C@H]1OC [Example 167, (E)-4-((3R,4S)-3,4-dimethoxypyrrolidin-1-yl)-1-(4-(4-((3-methyl-4-((1-methyl-1H-benzo[d]imidazol-5-yl)oxy)phenyl)amino)pyrrolo[2,1-f][1,2,4]triazin-5-yl)piperidin-1-yl)but-2-en-1-one]
BaF3_HER2YVMA cells; 72 h
  IC50: < 200 nM
BaF3_HER2WT cells; 72 h
  IC50: < 200 nM
BaF3_EGFRWT cells; 72 h
  IC50: 1500 to 5000 nM

## Cc1cc(Nc2ncnn3ccc(C4CC5CCC(C4)N5C(=O)/C=C/CN(C)C)c23)ccc1Oc1ccn2ncnc2c1 (single isomer, unassigned) [Examples 122 and 123, second eluting isomer, (E)-1-(3-(4-((4-([1,2,4]triazolo[1,5-a]pyridin-7-yloxy)-3-methylphenyl)amino)pyrrolo[2,1-f][1,2,4]triazin-5-yl)-8-azabicyclo[3.2.1]octan-8-yl)-4-(dimethylamino)but-2-en-1-one]
BaF3_HER2YVMA cells
  IC50: 200 to 500 nM
BaF3_HER2WT cells
  IC50: < 200 nM
BaF3_EGFRWT cells
  IC50: 1500 to 5000 nM

## COC1CCN(C/C=C/C(=O)N2CC(c3ccn4ncnc(Nc5ccc(Oc6ccn7ncnc7c6)c(C)c5)c34)C2)C1 (stereo not drawn) [Example 41, (E)-1-(3-(4-((4-([1,2,4]triazolo[1,5-a]pyridin-7-yloxy)-3-methylphenyl)amino)pyrrolo[2,1-f][1,2,4]triazin-5-yl)azetidin-1-yl)-4-(3-methoxypyrrolidin-1-yl)but-2-en-1-one]
BaF3_HER2YVMA cells; 72 h
  IC50: < 200 nM
BaF3_HER2WT cells; 72 h
  IC50: < 200 nM
BaF3_EGFRWT cells; 72 h
  IC50: 1500 to 5000 nM

## COC/C=C/C(=O)N1CC(c2ccn3ncnc(Nc4ccc(Oc5ccn6ncnc6c5)c(C)c4)c23)C1 [Example 40, (E)-1-(3-(4-((4-([1,2,4]triazolo[1,5-a]pyridin-7-yloxy)-3-methylphenyl)amino)pyrrolo[2,1-f][1,2,4]triazin-5-yl)azetidin-1-yl)-4-methoxybut-2-en-1-one]
BaF3_HER2YVMA cells; 72 h
  IC50: 200 to 500 nM
BaF3_HER2WT cells; 72 h
  IC50: 200 to 500 nM
BaF3_EGFRWT cells; 72 h
  IC50: 1500 to 5000 nM

## CO[C@@H]1CN(C/C=C/C(=O)N2CCC(c3ccn4ncnc(Nc5ccc(Oc6ccc7c(c6)ncn7C)c(C)c5)c34)CC2)C[C@H]1OC [Example 168, (E)-4-((3R,4R)-3,4-dimethoxypyrrolidin-1-yl)-1-(4-(4-((3-methyl-4-((1-methyl-1H-benzo[d]imidazol-5-yl)oxy)phenyl)amino)pyrrolo[2,1-f][1,2,4]triazin-5-yl)piperidin-1-yl)but-2-en-1-one]
BaF3_HER2YVMA cells; 72 h
  IC50: < 200 nM
BaF3_HER2WT cells; 72 h
  IC50: < 200 nM
BaF3_EGFRWT cells; 72 h
  IC50: 1500 to 5000 nM

## Cc1cc(Nc2ncnn3ccc(N4CCCC(N(C)C(=O)/C=C/CN(C)C)C4)c23)ccc1Oc1ccn2ncnc2c1 (stereo not drawn) [Example 68, (E)-N-(1-(4-((4-([1,2,4]triazolo[1,5-a]pyridin-7-yloxy)-3-methylphenyl)amino)pyrrolo[2,1-f][1,2,4]triazin-5-yl)piperidin-3-yl)-4-(dimethylamino)-N-methylbut-2-enamide]
BaF3_HER2YVMA cells; 72 h
  IC50: < 200 nM
BaF3_HER2WT cells; 72 h
  IC50: < 200 nM
BaF3_EGFRWT cells; 72 h
  IC50: 1500 to 5000 nM

## CO[C@H]1CN(C/C=C/C(=O)N2CCC(c3ccn4ncnc(Nc5ccc(Oc6ccn7ncnc7c6)c(C)c5)c34)CC2)C[C@H]1OC [Example 169, (E)-1-(4-(4-((4-([1,2,4]triazolo[1,5-a]pyridin-7-yloxy)-3-methylphenyl)amino)pyrrolo[2,1-f][1,2,4]triazin-5-yl)piperidin-1-yl)-4-((3R,4S)-3,4-dimethoxypyrrolidin-1-yl)but-2-en-1-one]
BaF3_HER2YVMA cells; 72 h
  IC50: < 200 nM
BaF3_HER2WT cells; 72 h
  IC50: < 200 nM
BaF3_EGFRWT cells; 72 h
  IC50: 1500 to 5000 nM

— patent US20250276983A1, “COMPOUNDS AND METHODS FOR MODULATING HER2” (IAMBIC THERAPEUTICS, INC., priority 2022, published 2025)
